Experimental data reported in patent US8765147B2, “Endophytic fungi from Pteromischum sp. plant, compounds and methods of use” (The Regents of the University of California, priority 2007, dated 2014).

How the values were obtained:
[1] = test system: human peripheral blood mononuclear cells (PBMCs); experiment: Toxicity to peripheral blood mononuclear cells (7-AAD / Annexin V flow cytometry); conditions: 24 and 48 hours of culture, versus DMSO controls; cyclosporin result at or above Bug/ml
Procedure: The cells (PBMCs) were then stained with 7-AAD and Annexin V directly conjugated to FITC or PE and subjected to flow cytometry. The percentage of necrotic (7-AAD+/Annexin V+), apoptotic (7-AAD-/Annexin V+) and viable (7-AAD-/Annexin V−) cells were calculated using CellQuest software (BD Biosciences). […] Error bars represent standard deviations between triplicate treatment groups.
Blood was collected from healthy adult donors and peripheral blood mononuclear cells (PBMCs) were purified using Histopaque 1077 (Sigma Aldrich, St. Louis, Mo.) according to the manufacturer's instructions. […] Cells were washed twice with PBS followed by staining with Annexin V directly conjugated to PE or FITC and 7-AAD using the Annexin V Apoptosis Detection Kit I (BD Biosciences, San Jose, Calif.) as per the manufacturer's instructions. Cells were then subjected to flow cytometry on a FACS Calibur equipped with an HTS loader (BD Biosciences, San Jose, Calif.). The staining allowed for differentiation among viable, necrotic and apoptotic cells. The studies were repeated at least three times and the variation between the dead cells detected was recorded as a function of concentration over 24 and 48 hour test periods.

[2] = test system: IL-2 production by activated CD4+ T cells; experiment: Inhibition of IL-2 production by activated CD4+ T cells (flow cytometry); assay type: cell-based; conditions: mouse spleen cells activated with ConA, anti-CD3/CD28 for 4 hours
Procedure: Total spleen cells were isolated from C57/B 6 mice and then were preactivated with ConA (1 ug/mL, Sigma-Aldrich, St. Louis, Mo.) for 2 days. These cells were then treated for 4 hours with cross-linked Hamster anti-mouse CD3/CD28 (1 ug/mL, BD Bioscience) antibodies in the Bruff's Medium containing 5% fetal bovine serum and 1× brefeldin A. After the activation, cells were fixed and analyzed for IL-2 production in the activated CD4± T cells using APC-conjugated anti-mouse IL-2 and PE-conjugated anti-mouse CD4 antibodies by flow cytometry.

Botrytis cinerea = experiment: Minimum inhibitory concentration (MIC), 24-well plate, potato dextrose broth; assay type: cell-based
Procedure: (§1) All plant pathogenic fungi used in the bioassay test system were obtained from Drs. Don Mathre and Nina Zidak of the MSU Department of Plant Sciences. All fungi were grown on potato dextrose agar (PDA) at 23° C. and only freshly transferred cultures (4-7 days old) were used in the fungal bioassay tests.
(§2) Assays were performed in sterile 24-well plates with each well containing 500 μl of potato dextrose broth. The plates were incubated from 48-288 hours at 25 C. The MIC was defined as the minimum concentration of compound resulting in no visible growth of the test organism. The compounds were dissolved in methanol which represented less than 0.5% total methanol in each test well. Several small plugs of agar 3×3×3 mm containing actively growing test fungi were then placed into each well with some wells serving as controls.

Aspergillus fumigatus = experiment: as above; assay type: cell-based
Procedure: as §1, §2

Pythium ultimum = experiment: as above; assay type: cell-based
Procedure: as §1, §2

Fusarium solani = experiment: as above; assay type: cell-based
Procedure: as §1, §2

Trichoderma virde = experiment: as above; assay type: cell-based
Procedure: as §1, §2

Geotrichum canididum = experiment: as above; assay type: cell-based
Procedure: as §1, §2

Sclerotinia sclerotiorum = experiment: as above; assay type: cell-based
Procedure: as §1, §2

Rhizoctonia solani = experiment: as above; assay type: cell-based
Procedure: as §1, §2

Substance: cyclic lipopeptide with a molecular mass of 1127.7 produced by C. dematium fungus CR-12; contains Val-Ile-Ser-Ile [Colutellin A, colutellin A]
- Cytotoxicity on human PBMCs (necrosis and apoptosis) [1]: did not induce significant cell death above the DMSO controls at any concentration tested
- IC50 [2]: 167 nM
- MIC (Botrytis cinerea; after 48 h): 3.6 µg/mL
- MIC (Botrytis cinerea; after 144 h): 10.8 µg/mL
- MIC (Botrytis cinerea; after 288 h): 10.8 µg/mL
- MIC (Aspergillus fumigatus; after 48 h): 2.4 µg/mL
- MIC (Aspergillus fumigatus; after 144 h): >100 µg/mL
- MIC (Aspergillus fumigatus; after 288 h): >100 µg/mL
- MIC (Pythium ultimum; after 48 h): >100 µg/mL
- MIC (Pythium ultimum; after 144 h): >100 µg/mL
- MIC (Pythium ultimum; after 288 h): >100 µg/mL
- MIC (Fusarium solani; after 48 h): 7.2 µg/mL
- MIC (Fusarium solani; after 144 h): >100 µg/mL
- MIC (Fusarium solani; after 288 h): >100 µg/mL
- MIC (Trichoderma virde; after 48 h): >100 µg/mL
- MIC (Trichoderma virde; after 144 h): >100 µg/mL
- MIC (Trichoderma virde; after 288 h): >100 µg/mL
- MIC (Geotrichum canididum; after 48 h): 3.6 µg/mL
- MIC (Geotrichum canididum; after 144 h): >100 µg/mL
- MIC (Geotrichum canididum; after 288 h): >100 µg/mL
- MIC (Sclerotinia sclerotiorum; after 48 h): 3.6 µg/mL
- MIC (Sclerotinia sclerotiorum; after 144 h): 10.8 µg/mL
- MIC (Sclerotinia sclerotiorum; after 288 h): 32.4 µg/mL
- MIC (Rhizoctonia solani; after 48 h): >100 µg/mL
- MIC (Rhizoctonia solani; after 144 h): >100 µg/mL
- MIC (Rhizoctonia solani; after 288 h): >100 µg/mL
